Reference: ChEMBL document CHEMBL3885861, “Open TG-GATES”

Species: Rattus norvegicus
Test: Open TG-GATES - Regimen: Single
Type: toxicity, organism-based, Sprague-Dawley
Design: regimen Single, gender Male, age 6 weeks
Settings: in vivo, po, 300 mg/kg, route gavage, dose level Middle; for APTT / Bas / Eos / Fbg / Hb / Ht / Lym / MCH / MCHC / MCV / Mono / Neu / PT / Plat / RBC / Ret / WBC: tissue Blood; for KIDNEY_L / KIDNEY_R / KIDNEY_TOTAL: tissue Kidney; for LIVER: tissue Liver; for A/G / ALP / ALT / AST / BUN / CRE / Ca / Cl / DBIL / GLC / IP / K / LDH / Na / PL / RALB / TBIL / TC / TG / TP / gamma-GTP: tissue Plasma

`O=C(N[C@H](CO)[C@H](O)c1ccc([N+](=O)[O-])cc1)C(Cl)Cl` [CHLORAMPHENICOL] showed a TERMINAL_BW (3 h) of 221.3 g, an APTT (3 h) of 16.6 s and a Bas (3 h) of 0%. The Eos (3 h) was 1%, the Fbg (3 h) was 268.4 mg/dL and the Hb (3 h) was 13.2 g/dL. It also gave a Ht (3 h) of 39%, a Lym (3 h) of 78.2% and an MCH (3 h) of 21.8 pg. For the same molecule, the MCHC (3 h) was 33.9%, the MCV (3 h) was 64.1 fL and the Mono (3 h) was 3.2%. For the same molecule, the Neu (3 h) was 17.4%, the PT (3 h) was 14.5 s and the Plat (3 h) was 114 x10_4/uL. The RBC (3 h) was 608.8 x10_4/ul, the Ret (3 h) was 8.3% and the WBC (3 h) was 71.3 x10_2/uL. It also gave a KIDNEY_L (3 h) of 0.9 g, a KIDNEY_R (3 h) of 0.9 g and a KIDNEY_TOTAL (3 h) of 1.9 g. It also gave an LIVER (3 h) of 9.8 g, an A/G (3 h) of 0.9 and an ALP (3 h) of 1546.4 IU/L. For the same molecule, the ALT (3 h) was 41 IU/L, the AST (3 h) was 76.6 IU/L and the BUN (3 h) was 11 mg/dL. It also gave a CRE (3 h) of 0.2 mg/dL, a Ca (3 h) of 11.5 mg/dL and a Cl (3 h) of 105.8 meq/L. It also gave a DBIL (3 h) of 0.018 mg/dL, a GLC (3 h) of 181.8 mg/dL and an IP (3 h) of 9.1 mg/dL. The K (3 h) was 4.1 meq/L, the LDH (3 h) was 66.2 IU/L and the Na (3 h) was 139.8 meq/L. It also gave a PL (3 h) of 144.2 mg/dL, an RALB (3 h) of 2.5 g/dL and a TBIL (3 h) of 0.064 mg/dL. It also gave a TC (3 h) of 76.6 mg/dL, a TG (3 h) of 66 mg/dL and a TP (3 h) of 5.5 g/dL. The gamma-GTP (3 h) was 1.2 IU/L, the TERMINAL_BW (6 h) was 221.3 g and the APTT (6 h) was 17.6 s. It also gave a Bas (6 h) of 0%, an Eos (6 h) of 0.8% and a Fbg (6 h) of 284 mg/dL. For the same molecule, the Hb (6 h) was 13.4 g/dL, the Ht (6 h) was 42.8% and the Lym (6 h) was 79.8%. It also gave an MCH (6 h) of 21.7 pg, an MCHC (6 h) of 31.3% and an MCV (6 h) of 69.4 fL. It also gave a Mono (6 h) of 2.6%, a Neu (6 h) of 16.8% and a PT (6 h) of 15 s. It also gave a Plat (6 h) of 107.3 x10_4/uL, an RBC (6 h) of 618.2 x10_4/ul and a Ret (6 h) of 8.2%. For the same molecule, the WBC (6 h) was 68.7 x10_2/uL, the KIDNEY_L (6 h) was 0.9 g and the KIDNEY_R (6 h) was 1 g. For the same molecule, the KIDNEY_TOTAL (6 h) was 1.9 g, the LIVER (6 h) was 8.8 g and the A/G (6 h) was 0.9. For the same molecule, the ALP (6 h) was 1672 IU/L, the ALT (6 h) was 40.8 IU/L and the AST (6 h) was 72.2 IU/L. For the same molecule, the BUN (6 h) was 9.4 mg/dL, the CRE (6 h) was 0.2 mg/dL and the Ca (6 h) was 11.4 mg/dL. For the same molecule, the Cl (6 h) was 106 meq/L, the DBIL (6 h) was 0.014 mg/dL and the GLC (6 h) was 184.4 mg/dL. It also gave an IP (6 h) of 9.8 mg/dL, a K (6 h) of 4.4 meq/L and an LDH (6 h) of 79 IU/L. It also gave a Na (6 h) of 141 meq/L, a PL (6 h) of 138.2 mg/dL and an RALB (6 h) of 2.5 g/dL. For the same molecule, the TBIL (6 h) was 0.07 mg/dL, the TC (6 h) was 76.6 mg/dL and the TG (6 h) was 60 mg/dL. For the same molecule, the TP (6 h) was 5.4 g/dL, the gamma-GTP (6 h) was 1 IU/L and the TERMINAL_BW (9 h) was 221.3 g. It also gave an APTT (9 h) of 16.4 s, a Bas (9 h) of 0% and an Eos (9 h) of 0.8%. For the same molecule, the Fbg (9 h) was 273.4 mg/dL, the Hb (9 h) was 13.2 g/dL and the Ht (9 h) was 42.2%. The Lym (9 h) was 81.6%, the MCH (9 h) was 20.5 pg and the MCHC (9 h) was 31.4%. For the same molecule, the MCV (9 h) was 65.4 fL, the Mono (9 h) was 1.8% and the Neu (9 h) was 15%. For the same molecule, the PT (9 h) was 15.2 s, the Plat (9 h) was 109.8 x10_4/uL and the RBC (9 h) was 646.2 x10_4/ul. It also gave a Ret (9 h) of 7.4%, a WBC (9 h) of 55.9 x10_2/uL and a KIDNEY_L (9 h) of 0.9 g. The KIDNEY_R (9 h) was 0.9 g, the KIDNEY_TOTAL (9 h) was 1.8 g and the LIVER (9 h) was 8.3 g. For the same molecule, the A/G (9 h) was 0.9, the ALP (9 h) was 1711.2 IU/L and the ALT (9 h) was 34.6 IU/L. For the same molecule, the AST (9 h) was 70.2 IU/L, the BUN (9 h) was 10.2 mg/dL and the CRE (9 h) was 0.2 mg/dL. The Ca (9 h) was 11.1 mg/dL, the Cl (9 h) was 105 meq/L and the DBIL (9 h) was 0.014 mg/dL. For the same molecule, the GLC (9 h) was 180.4 mg/dL, the IP (9 h) was 10.2 mg/dL and the K (9 h) was 4.5 meq/L. The LDH (9 h) was 59.4 IU/L, the Na (9 h) was 139.8 meq/L and the PL (9 h) was 122 mg/dL. It also gave an RALB (9 h) of 2.5 g/dL, a TBIL (9 h) of 0.068 mg/dL and a TC (9 h) of 67.8 mg/dL. The TG (9 h) was 36 mg/dL, the TP (9 h) was 5.3 g/dL and the gamma-GTP (9 h) was 1.2 IU/L. It also gave a TERMINAL_BW (24 h) of 227.9 g, an APTT (24 h) of 18.8 s and a Bas (24 h) of 0%. The Eos (24 h) was 0.8%, the Fbg (24 h) was 258.8 mg/dL and the Hb (24 h) was 13.7 g/dL. The Ht (24 h) was 42.4%, the Lym (24 h) was 84.4% and the MCH (24 h) was 21.7 pg. The MCHC (24 h) was 32.1%, the MCV (24 h) was 67.6 fL and the Mono (24 h) was 2.8%. It also gave a Neu (24 h) of 11.6%, a PT (24 h) of 14.8 s and a Plat (24 h) of 118.7 x10_4/uL. For the same molecule, the RBC (24 h) was 628.2 x10_4/ul, the Ret (24 h) was 7.8% and the WBC (24 h) was 66 x10_2/uL. It also gave a KIDNEY_L (24 h) of 1 g, a KIDNEY_R (24 h) of 1 g and a KIDNEY_TOTAL (24 h) of 2 g. For the same molecule, the LIVER (24 h) was 9.4 g, the A/G (24 h) was 0.9 and the ALP (24 h) was 1891.8 IU/L. It also gave an ALT (24 h) of 48.2 IU/L, an AST (24 h) of 76.6 IU/L and a BUN (24 h) of 14.8 mg/dL. The CRE (24 h) was 0.2 mg/dL, the Ca (24 h) was 11.5 mg/dL and the Cl (24 h) was 105.4 meq/L. The DBIL (24 h) was 0.02 mg/dL, the GLC (24 h) was 190.4 mg/dL and the IP (24 h) was 8.8 mg/dL. The K (24 h) was 4.5 meq/L, the LDH (24 h) was 65 IU/L and the Na (24 h) was 141.6 meq/L. It also gave a PL (24 h) of 157.6 mg/dL, an RALB (24 h) of 2.5 g/dL and a TBIL (24 h) of 0.062 mg/dL. The TC (24 h) was 86 mg/dL, the TG (24 h) was 81 mg/dL and the TP (24 h) was 5.5 g/dL. It also gave a gamma-GTP (24 h) of 1 IU/L.
